We go through five compounds from paper PMC3356437 (Peptides, 2012).

One data set has as its system E. coli. The data set is classed as cell-based, Escherichia coli. The settings on record: 50% saliva (45% in legend) in PBS, 2 hours, 35°C.
Data set [1] relates to P. gingivalis (53977, DPG3, W50). Kind of data set: Bacterial killing assay. The data set is classed as cell-based, Porphyromonas gingivalis. The settings on record: three strains, 200 μg/ml peptide, 2 ½ hours, 35°C, CFU.
Another data set concerns P. gingivalis W50. It is filed as cell-based, Porphyromonas gingivalis.
The test system of a further data set is E. coli DHα5. It is filed as cell-based, Escherichia coli.
The subject of the next data set is P. aeruginosa PAO1. The data set is classed as cell-based, Pseudomonas aeruginosa.
Data set [2] concerns red blood cells. The settings on record: cited from earlier work.
The target in data set [3] is T1, LPS-binding protein (LBP) (Homo sapiens, UniProt P18428).
T1 sequence (P18428 26-481): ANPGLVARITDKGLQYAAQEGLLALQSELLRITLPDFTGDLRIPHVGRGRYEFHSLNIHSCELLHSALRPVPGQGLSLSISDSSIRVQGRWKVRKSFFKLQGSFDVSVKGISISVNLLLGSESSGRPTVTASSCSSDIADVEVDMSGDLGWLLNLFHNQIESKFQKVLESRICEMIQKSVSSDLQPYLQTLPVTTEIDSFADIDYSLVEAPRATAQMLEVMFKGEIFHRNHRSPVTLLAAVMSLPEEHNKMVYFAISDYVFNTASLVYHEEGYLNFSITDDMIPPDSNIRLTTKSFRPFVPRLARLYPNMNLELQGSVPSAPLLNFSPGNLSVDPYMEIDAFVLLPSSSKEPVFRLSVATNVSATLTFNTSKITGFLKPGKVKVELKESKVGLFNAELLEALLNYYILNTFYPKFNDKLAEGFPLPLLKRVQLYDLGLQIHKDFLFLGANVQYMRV
Nature of the data set: LPS binding to LPS-binding protein. The settings on record: LPS + 180–200 μg/ml GL13K; mean ± SEM, N=3.

The test system of data set [4] is red blood cells.

In brackets after ≈: the same amount, converted by molar mass. Like-named read-outs stand apart in the source and are kept apart here. Where a SMILES comes first, the peptide text is derived from it.

For `CC[C@H](C)[C@H](NC(=O)[C@H](CCCCN)NC(=O)[C@H](CCC(=O)O)NC(=O)[C@H](CCCCN)NC(=O)[C@H](CO)NC(=O)[C@H](CCCCN)NC(=O)[C@H](CCCNC(=N)N)NC(=O)[C@H](Cc1ccccc1)NC(=O)[C@H](Cc1ccccc1)NC(=O)[C@H](CC(=O)O)NC(=O)CNC(=O)[C@H](CC(C)C)NC(=O)[C@@H](N)CC(C)C)C(=O)NCC(=O)N[C@@H](CCCCN)C(=O)N[C@@H](CCC(=O)O)C(=O)N[C@@H](Cc1ccccc1)C(=O)N[C@@H](CCCCN)C(=O)N[C@@H](CCCNC(=N)N)C(=O)N[C@H](C(=O)N[C@H](C(=O)N[C@@H](CCC(N)=O)C(=O)N[C@@H](CCCNC(=N)N)C(=O)N[C@H](C(=O)N[C@@H](CCCCN)C(=O)N[C@@H](CC(=O)O)C(=O)N[C@@H](Cc1ccccc1)C(=O)N[C@@H](CC(C)C)C(=O)N[C@@H](CCCNC(=N)N)C(=O)N[C@@H](CC(N)=O)C(=O)N[C@@H](CC(C)C)C(=O)N[C@H](C(=O)N1CCC[C@H]1C(=O)N[C@@H](CCCNC(=N)N)C(=O)N[C@H](C(=O)N[C@@H](CCC(=O)O)C(=O)N[C@@H](CO)C(=O)O)[C@@H](C)O)C(C)C)[C@@H](C)CC)C(C)C)[C@@H](C)CC` [LL-37], in the data set on E. coli, the “Reduction of CFU / bactericidal activity in the presence of saliva” value is given as “less than 90%”. In data set [1], the “Bactericidal activity” value is on record as “killed”. Also, the MIC against P. gingivalis W50 (broth dilution in Pg broth, 10^4 CFU, OD 570 nm, seven independent experiments) came out at 25 µg/mL (≈ 5.56 µM).
Turning to `CC[C@H](C)[C@H](NC(=O)[C@H](CCC(N)=O)NC(=O)CN)C(=O)N[C@H](C(=O)N[C@@H](CC(N)=O)C(=O)N[C@@H](CC(C)C)C(=O)N[C@@H](CCCCN)C(N)=O)[C@@H](C)CC` [GK7NH2] (H-GQIINLK-NH2), the minimal inhibitory concentration (MIC) was over 200 µg/mL in the data set with E. coli DHα5, over 167 µg/mL in the data set with P. aeruginosa PAO1 and over 167 µg/mL in the data set on P. gingivalis W50 (W50). Further, the “MIC, 50% saliva” value against E. coli DHα5 is over 167 µg/mL.
For `CC[C@H](C)[C@H](NC(=O)[C@H](CCC(N)=O)NC(=O)CN)C(=O)N[C@H](C(=O)N[C@@H](CC(N)=O)C(=O)N[C@@H](CC(C)C)C(=O)N[C@@H](CCCCN)C(=O)N[C@@H](C)C(=O)N[C@@H](CO)C(=O)N[C@@H](CC(C)C)C(=O)N[C@@H](CC(=O)O)C(=O)N[C@@H](CC(C)C)C(=O)N[C@@H](CC(C)C)C(N)=O)[C@@H](C)CC` [GL13NH2] (H-GQIINLKASLDLL-NH2), the minimal inhibitory concentration (MIC) is over 200 µg/mL in the data set with E. coli DHα5, over 167 µg/mL against P. aeruginosa PAO1 and over 167 µg/mL in the data set with P. gingivalis W50 (W50). Further, in the data set on red blood cells [2], the “Hemagglutination (caused, implied by contrast with GL13K)” value was “hemagglutination”.
Turning to `CC[C@H](C)[C@H](NC(=O)[C@H](CCCCN)NC(=O)CN)C(=O)N[C@H](C(=O)N[C@@H](CCCCN)C(=O)N[C@@H](CC(C)C)C(=O)N[C@@H](CCCCN)C(=O)N[C@@H](C)C(=O)N[C@@H](CO)C(=O)N[C@@H](CC(C)C)C(=O)N[C@@H](CCCCN)C(=O)N[C@@H](CC(C)C)C(=O)N[C@@H](CC(C)C)C(N)=O)[C@@H](C)CC` [GL13K] (H-GKIIKLKASLKLL-NH2), in the data set on E. coli DHα5, the MIC amounted to 5 µg/mL (≈ 3.51 µM) and the “MIC, 50% saliva” value came out at 50 µg/mL (≈ 35.1 µM). Moreover, the “LBP binding of LPS relative to LPS alone (100%)” value in data set [3] was 45.3%±9.7% (N=3). Besides, the “Hemagglutination” value in the data set with red blood cells [4] is recorded as “did not cause hemagglutination”.
As for polymyxin B, the “Reduction of CFU / bactericidal activity in the presence of saliva” value with E. coli is recorded as “retained bactericidal activity”. In addition, in data set [1], the “Bactericidal activity” value was “ineffective”.

A word on the MIC: it is the least concentration at which growth counts as inhibited. High values mean a need for much substance, low ones inhibition by little substance.
